We go through seven molecules from the supplement of paper PMC11061612.

Assay in all cases: combination Emax (second highest fraction inhibited in the dose matrix, 72 h); higher = more inhibition; extreme values may be limits of the assay
Test [1] deals with 8505C (Thyroid Gland Carcinoma). The method in brief:
(§1)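 After 24 hours at 37°C and 5% CO2 in 1536-well plates, cells in DMEM/F12 or RPMI plus 10% FBS received two-drug dose matrices for 72 hours. Viability came from CellTiter-Glo 2.0 luminescence and was scaled as inhibition, anchored at 0 by vehicle wells and at 1 by blank wells. Combination Emax is taken as the second-highest inhibition in the matrix, and Bliss excess as the observed combination effect less EA + EB − EA·EB, with EA and EB the single-agent effects.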

Test [2] has as its system CHSA8926 (Chondrosarcoma). The method in brief: as §1
Test [3] deals with CW-2 (Colorectal Carcinoma). In short, it runs like this: as §1
The next test relates to G-361 (Melanoma). The method in brief: as §1
The subject of test [4] is JHH-4 (Hepatocellular Carcinoma). The method in brief: as §1
Test [5] relates to KMS-12-BM (Plasma Cell Myeloma). In short, it runs like this:
as §1

Test [6] has as its system KU812 (Chronic Myelogenous Leukemia). In short, it runs like this: as §1
The subject of test [7] is KYSE-270 (Esophageal Squamous Cell Carcinoma). The method in brief:
as §1

A further test has as its system M059J (Glioblastoma). In short, it runs like this: as §1
For test [8], the system named is MOG-G-CCM (Low Grade Glioma). In short, it runs like this: as §1
The test system of test [9] is NCCIT (Other Solid Carcinomas). In short, it runs like this:
as §1

For test [10], the system named is NCI-H3122 (Lung Adenocarcinoma). In short, it runs like this: as §1
Test [11] concerns NCI-H520 (Squamous Cell Lung Carcinoma). In short, it runs like this:
as §1

The test system of test [12] is NCI-H929 (Plasma Cell Myeloma). The method in brief: as §1
A further test relates to RD (Rhabdomyosarcoma). In short, it runs like this: as §1
The test system of the next test is SJSA-1 (Osteosarcoma). In short, it runs like this:
as §1

Test [13] relates to SK-GT-4 (Esophageal Adenocarcinoma). In short, it runs like this:
as §1

Test [14] relates to SU-DHL-5 (B-Cell Non-Hodgkin's Lymphoma). In short, it runs like this:
as §1

Test [15] deals with T-T (Esophageal Squamous Cell Carcinoma). The method in brief: as §1

In the case of `NC1(C(=O)N[C@@H](CCO)c2ccc(Cl)cc2)CCN(c2ncnc3[nH]ccc23)CC1` [Capivasertib] + CC(=O)c1c(C)c2cnc(Nc3ccc(N4CCNCC4)cn3)nc2n(C2CCCC2)c1=O [Palbociclib] (first compound max 10 µM, 7x7, partner max 10 µM), the “combination Emax” value was 0.187 in test [1]; 0.48 in test [2]; 0.445 in test [3]; 0.443 in the test on G-361 (Melanoma); 0.466 in test [4]; 0.734 in test [5]. Besides, the “combination Emax” value in test [6] turned out to be 0.552; in test [7], 0.27; in the test on M059J (Glioblastoma) it was 0.338; in test [8], 0.501; in [9], 0.537; in test [10], 0.701. The “combination Emax” value in test [11] worked out at 0.717; in [12] it was 1; in the test with RD (Rhabdomyosarcoma), 0.463; with SJSA-1 (Osteosarcoma) it was 0.51; in test [13], 0.588; in test [14], 1. Further, the “combination Emax” value in [15] was determined as 0.344.

Consider `NC1(C(=O)N[C@@H](CCO)c2ccc(Cl)cc2)CCN(c2ncnc3[nH]ccc23)CC1` [Capivasertib] + CC(C)n1c(=O)n(C)c2cnc3cc(F)c(-c4ccc(OCCCN5CCCCC5)nc4)cc3c21 [AZD1390] (first compound max 10 µM, 7x7, partner max 0.3 µM), for which the “combination Emax” value in [1] was 0.195; in [2] it was 0.379; in test [3], 0.274; in the test with G-361 (Melanoma), 0.282; in [4], 0.178; in [5] it was 0.415. Also, the “combination Emax” value is 0.48 in test [6]; 0.415 in [7]; 0.512 with M059J (Glioblastoma); 0.485 in [8]; 0.54 in [9]; 0.509 in test [10]. Also, the “combination Emax” value in test [11] stood at 0.699; in test [12] it was 1; in the test on RD (Rhabdomyosarcoma) it was 0.295; with SJSA-1 (Osteosarcoma), 0.406; in test [13], 0.506; in test [14], 1. The “combination Emax” value in test [15] worked out at 0.282.

Regarding `NC1(C(=O)N[C@@H](CCO)c2ccc(Cl)cc2)CCN(c2ncnc3[nH]ccc23)CC1` [Capivasertib] + CCN(CCO)CCCOc1ccc2c(Nc3cc(CC(=O)Nc4cccc(F)c4)[nH]n3)ncnc2c1 [AZD2811] (first compound max 10 µM, 7x7, partner max 1 µM), the “combination Emax” value in [1] turned out to be 0.304; in test [2], 0.46; in test [3], 0.288; in the test on G-361 (Melanoma) it was 0.46; in test [4], 0.226; in test [5], 0.522. Also, the “combination Emax” value in test [6] worked out at 0.727; in test [7] it was 0.329; with M059J (Glioblastoma) it was 0.517; in test [8], 0.67; in test [9], 0.624; in test [10] it was 0.62. Also, the “combination Emax” value in test [11] stood at 0.688; in [12], 1; in the test with RD (Rhabdomyosarcoma) it was 0.349; in the test with SJSA-1 (Osteosarcoma), 0.489; in test [13] it was 0.621; in [14] it was 1. In addition, in [15], the “combination Emax” value turned out to be 0.331.

Consider `NC1(C(=O)N[C@@H](CCO)c2ccc(Cl)cc2)CCN(c2ncnc3[nH]ccc23)CC1` [Capivasertib] + COc1nnc2ccc(N3CCC(c4ccc(OCCN5CCN(C)C(=O)[C@H]5C)cc4)CC3)nn12 [AZD5153] (first compound max 10 µM, 7x7, partner max 1 µM), for which the “combination Emax” value came to 0.405 in [1]; 0.48 in test [2]; 0.559 in [3]; 0.891 with G-361 (Melanoma); 0.324 in test [4]; 1 in [5]. Further, the “combination Emax” value in test [6] was 0.931; in test [7] it was 0.466; in the test with M059J (Glioblastoma), 0.682; in test [8], 0.834; in test [9], 0.873; in [10], 0.738. Besides, the “combination Emax” value is 0.806 in [11]; 1 in test [12]; 0.683 in the test on RD (Rhabdomyosarcoma); 0.727 in the test on SJSA-1 (Osteosarcoma); 0.758 in test [13]; 1 in [14]. For the same molecule, the “combination Emax” value in [15] came to 0.527.

As to `CS(=O)(=O)CCNCc1ccc(-c2ccc3ncnc(Nc4ccc(OCc5cccc(F)c5)c(Cl)c4)c3c2)o1` [Lapatinib] + Cn1cnc2c(F)c(Nc3ccc(Br)cc3Cl)c(C(=O)NOCCO)cc21 [Selumetinib] (first compound max 10 µM, 7x7, partner max 10 µM), the “combination Emax” value in [3] is 0.576; in test [6], 0.963; in [7], 0.542; in the test with M059J (Glioblastoma), 0.365; in test [8], 0.257; in [9] it was 0.255. Moreover, the “combination Emax” value in test [10] is 0.611; in [11], 0.357; in [12], 0.707; in the test on SJSA-1 (Osteosarcoma) it was 0.422; in test [13], 0.585; in test [15] it was 0.843.

On to `CS(=O)(=O)CCNCc1ccc(-c2ccc3ncnc(Nc4ccc(OCc5cccc(F)c5)c(Cl)c4)c3c2)o1` [Lapatinib] + NC1(c2ccc(-c3nc4ccn5c(=O)[nH]nc5c4cc3-c3ccccc3)cc2)CCC1 [MK-2206] (first compound max 10 µM, 7x7, partner max 10 µM), for which the “combination Emax” value in test [3] amounted to 0.611; in test [6], 0.917; in test [7], 0.913; in the test on M059J (Glioblastoma), 0.756; in test [8], 0.523; in [9], 0.883. Also, the “combination Emax” value turned out to be 0.653 in [10]; 0.922 in test [11]; 1 in test [12]; 0.897 in the test with SJSA-1 (Osteosarcoma); 0.7 in [13]; 0.928 in test [15].

Take `CCc1c2c(nc3ccc(O)cc13)-c1cc3c(c(=O)n1C2)COC(=O)[C@]3(O)CC` [SN-38] + O=C(c1cc(Cc2n[nH]c(=O)c3ccccc23)ccc1F)N1CCN(C(=O)C2CC2)CC1 [Olaparib] (first compound max 0.3 µM, 7x7, partner max 10 µM): the “combination Emax” value in test [1] was 0.849; in test [2], 0.452; in [3] it was 0.604; in the test with G-361 (Melanoma), 0.459; in [6] it was 0.756; in test [7], 0.949. The “combination Emax” value with M059J (Glioblastoma) is 0.987; in test [8], 0.49; in test [9], 0.274; in test [10] it was 0.932; in [11] it was 0.834; in test [12] it was 0.95. Also, the “combination Emax” value in the test with SJSA-1 (Osteosarcoma) stood at 0.804; in test [13], 0.4; in test [14] it was 1; in test [15], 0.835.
